# How the values were obtained:
# RIN 5F cell line = test: 86Rb+ efflux from a β-cell line (Rb-efflux in rin 5F cells); format: cell-based; conditions: 1 h at room temperature, Ringer buffer pH 7.1, four parameter logistic curve, read-out: EC50, inhibition of Rb-efflux
# Protocol: ^86 Rb^+ efflux from a β-cell line
# The RIN 5F cell line was grown in RPMI 1640 with Glutamax I, supplemented with 10% fetal calf serum (from GibcoBRL, Scotland, UK) and maintained in an atmosphere of 5% CO2 /95% air at 37° C. The cells were detached with a Trypsin-EDTA solution (from GibcoBRL, Scotland, UK), resuspended in medium, added 1 mCi/ml ^86 Rb^+ and replated into microtiter plates (96 well cluster 3596, sterile, from Costar Corporation,Massachusetts, U.S.A.) at a density of 50000 cells/well in […], and grown 24 hours before use in assay.
# The plates were washed 4 times with Ringer buffer (150 mM NaCl, 10 mM Hepes, 3.0 mM KCl, 1.0 mM CaCl2, 20 mM Sucrose, pH 7.1). Eighty μl Ringer buffer and 1 μl control- or test compound dissolved in DMSO was added. After incubation 1 h at room temperature with a lid, 50 μl of the supernatant was transferred to PicoPlates (Packard Instrument Company, Connecticut, U.S.A.) and 100 μl MicroScint40 (Packard Instrument Company, Connecticut, U.S.A.) added. The plates were counted in TopCount (Packard Instrument Company, Connecticut, U.S.A.) for 1 min/well at the ^32 P program. […]
# rat aorta rings = test: Relaxation of rat aorta rings; conditions: rat thoracic aorta rings, phenylephrine-contracted to 80% of maximum response; cumulative addition; read-out: EC50 (concentration required to evoke a 50% relaxation of the tissue)
# Protocol: The activity of the compounds as potassium channel openers can also be measured as relaxation of rat aortas rings according to the following procedure:
# A section of rat thoracic aorta between the aortic arch and the diaphragm was dissected out and mounted as ring preparations as described by Taylor P. D. et al, Brit J. Pharmacol, 111, 42-48 (1994).
# After a 45 min. equilibration period under a tension of 2 g, the preparations were contracted to achieve 80% of the maximum response using the required concentration of phenylephrine. When the phenylephrine response reached a plateau, potential vasodilatory agents were added cumulatively to the bath in small volumes using half log molar increments at 2 min intervals. Relaxation was expressed at the percentage of the contracted tension. The potency of a compound was expressed as the concentration required to evoke a 50% relaxation of the tissue.
# Relaxation of rat aorta rings
SMILES,EC50 (RIN 5F cell line) [µM],EC50 (rat aorta rings) [µM]
"CC(C)C(C)NC1=NS(=O)(=O)c2sc(Cl)cc2N1 (centres unmarked) [Compound 1, 6-Chloro-3-(1,2-dimethylpropyl)amino-4H-thieno[3,2-e]-1,2,4-thiadiazine 1,1-dioxide]",2.7,1.2
"CCNC1=NS(=O)(=O)c2sc(Cl)cc2N1 [Compound 2, 6-Chloro-3-ethylamino-4H-thieno[3,2-e]-1,2,4-thiadiazine 1,1-dioxide]",,15
"C[C@H](CO)NC1=NS(=O)(=O)c2sc(Cl)cc2N1 [Compound 16, (R)-6-Chloro-3-(2-hydroxy-1-methylethyl)amino-4H-thieno[3,2-e]-1,2,4-thiadiazine 1,1-dioxide]",5.9,6.1
